According to patent US20080090805A1, “CB-1 MODULATING COMPOUNDS AND THEIR USE” (ACADIA PHARMACEUTICALS INC., priority 2005, published 2008):

Target: human CB1 receptor (Homo sapiens, UniProt P21554)
Experiment: CB1 receptor human binding assay ([3H]SR141716A, transfected HEK-293 T membranes)
Conditions: human CB1, HEK-293 T membranes

Sequence of human CB1 receptor (P21554 whole entry): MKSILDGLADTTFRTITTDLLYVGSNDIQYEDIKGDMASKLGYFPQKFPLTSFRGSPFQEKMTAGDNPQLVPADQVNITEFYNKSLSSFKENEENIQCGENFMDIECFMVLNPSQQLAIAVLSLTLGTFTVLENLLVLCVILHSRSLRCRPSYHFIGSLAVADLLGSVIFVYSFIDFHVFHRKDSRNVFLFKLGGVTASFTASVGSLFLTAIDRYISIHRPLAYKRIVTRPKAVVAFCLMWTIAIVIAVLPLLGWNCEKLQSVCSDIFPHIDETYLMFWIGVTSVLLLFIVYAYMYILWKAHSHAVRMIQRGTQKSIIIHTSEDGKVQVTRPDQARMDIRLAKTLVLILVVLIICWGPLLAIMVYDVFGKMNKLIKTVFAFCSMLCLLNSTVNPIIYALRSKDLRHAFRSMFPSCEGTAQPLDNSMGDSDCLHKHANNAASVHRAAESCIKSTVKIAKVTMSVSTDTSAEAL

Binding Human Inh %	SMILES
94%	O=C(NN1CCCCCC1)c1ccc2c(c1)N=C(c1cccc(Cl)c1)c1ccccc1S2 [drawing 1209]
107%	O=C(NC1CCCCC1)c1ccc2c(c1)N=C(c1cccc(Cl)c1)c1ccccc1S2 [drawing 1194]
100%	CC(C)CNC(=O)c1ccc2c(c1)N=C(c1ccc(Cl)c(Cl)c1)c1ccccc1S2 [drawing 1192]
92%	CC(C)CNC(=O)c1ccc2c(c1)N=C(c1ccc(Cl)s1)c1ccc(Cl)cc1S2 [drawing 1200]
77%	CC(C)CNC(=O)c1ccc2c(c1)N=C(c1ccc(Cl)cc1F)c1ccccc1S2 [drawing 1199]
74%	CCCNC(=O)c1ccc2c(c1)N=C(c1ccc(Cl)cc1)c1ccccc1S2 [drawing 1210]

SMILES	Binding Human Inh %
COc1cccc(C2=Nc3cc(C(=O)NC4CCC(F)(F)CC4)ccc3Sc3ccccc32)n1 [drawing 1193]	88%

Same assay, conditions: human CB1, HEK-293 T membranes, read-out: Binding Human pKi (converted)

Ki	SMILES
1.58 nM	O=C(NN1CCCCCC1)c1ccc2c(c1)N=C(c1cccc(Cl)c1)c1ccccc1S2 [drawing 1209]
0.631 nM	O=C(NC1CCCCC1)c1ccc2c(c1)N=C(c1cccc(Cl)c1)c1ccccc1S2 [drawing 1194]
0.398 nM	CC(C)CNC(=O)c1ccc2c(c1)N=C(c1ccc(Cl)c(Cl)c1)c1ccccc1S2 [drawing 1192]
0.631 nM	CC(C)CNC(=O)c1ccc2c(c1)N=C(c1ccc(Cl)s1)c1ccc(Cl)cc1S2 [drawing 1200]
0.631 nM	CC(C)CNC(=O)c1ccc2c(c1)N=C(c1ccc(Cl)cc1F)c1ccccc1S2 [drawing 1199]
2 nM	CCCNC(=O)c1ccc2c(c1)N=C(c1ccc(Cl)cc1)c1ccccc1S2 [drawing 1210]

SMILES	Ki
COc1cccc(C2=Nc3cc(C(=O)NC4CCC(F)(F)CC4)ccc3Sc3ccccc32)n1 [drawing 1193]	0.501 nM

Target: native CB1 receptors (Rattus norvegicus, UniProt P20272)
Experiment: CB1 receptor rat binding assay ([3H]SR141716A, rat brain membranes)
Conditions: rat brain membranes, [3H]SR141716A

Sequence of native CB1 receptors (P20272 whole entry): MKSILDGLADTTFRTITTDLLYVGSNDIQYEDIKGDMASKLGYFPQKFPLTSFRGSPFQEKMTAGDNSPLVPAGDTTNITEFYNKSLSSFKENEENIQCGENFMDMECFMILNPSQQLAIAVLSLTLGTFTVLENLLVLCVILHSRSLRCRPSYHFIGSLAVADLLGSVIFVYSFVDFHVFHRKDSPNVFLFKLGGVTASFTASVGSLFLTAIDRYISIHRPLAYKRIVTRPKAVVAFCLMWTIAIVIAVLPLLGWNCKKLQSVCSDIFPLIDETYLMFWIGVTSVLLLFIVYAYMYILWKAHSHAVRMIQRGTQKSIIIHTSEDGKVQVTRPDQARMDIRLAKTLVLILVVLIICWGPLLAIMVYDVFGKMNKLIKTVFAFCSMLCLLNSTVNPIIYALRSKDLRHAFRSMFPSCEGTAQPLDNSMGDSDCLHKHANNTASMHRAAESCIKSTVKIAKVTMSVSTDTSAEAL

Binding rat Inh %	SMILES
87%	O=C(NN1CCCCCC1)c1ccc2c(c1)N=C(c1cccc(Cl)c1)c1ccccc1S2 [drawing 1209]
80%	O=C(NC1CCCCC1)c1ccc2c(c1)N=C(c1cccc(Cl)c1)c1ccccc1S2 [drawing 1194]
96%	CC(C)CNC(=O)c1ccc2c(c1)N=C(c1ccc(Cl)c(Cl)c1)c1ccccc1S2 [drawing 1192]
100%	CC(C)CNC(=O)c1ccc2c(c1)N=C(c1ccc(Cl)s1)c1ccc(Cl)cc1S2 [drawing 1200]
94%	CC(C)CNC(=O)c1ccc2c(c1)N=C(c1ccc(Cl)cc1F)c1ccccc1S2 [drawing 1199]
95%	CCCNC(=O)c1ccc2c(c1)N=C(c1ccc(Cl)cc1)c1ccccc1S2 [drawing 1210]

SMILES	Binding rat Inh %
COc1cccc(C2=Nc3cc(C(=O)NC4CCC(F)(F)CC4)ccc3Sc3ccccc32)n1 [drawing 1193]	82%

Same assay, conditions: rat brain membranes, [3H]SR141716A; read-out: Binding rat pKi (converted)

Ki	SMILES
2 nM	O=C(NN1CCCCCC1)c1ccc2c(c1)N=C(c1cccc(Cl)c1)c1ccccc1S2 [drawing 1209]
1.26 nM	O=C(NC1CCCCC1)c1ccc2c(c1)N=C(c1cccc(Cl)c1)c1ccccc1S2 [drawing 1194]
1.58 nM	CC(C)CNC(=O)c1ccc2c(c1)N=C(c1ccc(Cl)c(Cl)c1)c1ccccc1S2 [drawing 1192]
5.01 nM	CC(C)CNC(=O)c1ccc2c(c1)N=C(c1ccc(Cl)s1)c1ccc(Cl)cc1S2 [drawing 1200]
5.01 nM	CC(C)CNC(=O)c1ccc2c(c1)N=C(c1ccc(Cl)cc1F)c1ccccc1S2 [drawing 1199]
6.31 nM	CCCNC(=O)c1ccc2c(c1)N=C(c1ccc(Cl)cc1)c1ccccc1S2 [drawing 1210]

SMILES	Ki
COc1cccc(C2=Nc3cc(C(=O)NC4CCC(F)(F)CC4)ccc3Sc3ccccc32)n1 [drawing 1193]	0.794 nM

Target: hERG (Homo sapiens, UniProt Q12809)
Experiment: HERG safety study (whole cell recordings, CHO cells)
Conditions: CHO cells stably expressing hERG channels, pH 7.4

Sequence of hERG (Q12809 whole entry): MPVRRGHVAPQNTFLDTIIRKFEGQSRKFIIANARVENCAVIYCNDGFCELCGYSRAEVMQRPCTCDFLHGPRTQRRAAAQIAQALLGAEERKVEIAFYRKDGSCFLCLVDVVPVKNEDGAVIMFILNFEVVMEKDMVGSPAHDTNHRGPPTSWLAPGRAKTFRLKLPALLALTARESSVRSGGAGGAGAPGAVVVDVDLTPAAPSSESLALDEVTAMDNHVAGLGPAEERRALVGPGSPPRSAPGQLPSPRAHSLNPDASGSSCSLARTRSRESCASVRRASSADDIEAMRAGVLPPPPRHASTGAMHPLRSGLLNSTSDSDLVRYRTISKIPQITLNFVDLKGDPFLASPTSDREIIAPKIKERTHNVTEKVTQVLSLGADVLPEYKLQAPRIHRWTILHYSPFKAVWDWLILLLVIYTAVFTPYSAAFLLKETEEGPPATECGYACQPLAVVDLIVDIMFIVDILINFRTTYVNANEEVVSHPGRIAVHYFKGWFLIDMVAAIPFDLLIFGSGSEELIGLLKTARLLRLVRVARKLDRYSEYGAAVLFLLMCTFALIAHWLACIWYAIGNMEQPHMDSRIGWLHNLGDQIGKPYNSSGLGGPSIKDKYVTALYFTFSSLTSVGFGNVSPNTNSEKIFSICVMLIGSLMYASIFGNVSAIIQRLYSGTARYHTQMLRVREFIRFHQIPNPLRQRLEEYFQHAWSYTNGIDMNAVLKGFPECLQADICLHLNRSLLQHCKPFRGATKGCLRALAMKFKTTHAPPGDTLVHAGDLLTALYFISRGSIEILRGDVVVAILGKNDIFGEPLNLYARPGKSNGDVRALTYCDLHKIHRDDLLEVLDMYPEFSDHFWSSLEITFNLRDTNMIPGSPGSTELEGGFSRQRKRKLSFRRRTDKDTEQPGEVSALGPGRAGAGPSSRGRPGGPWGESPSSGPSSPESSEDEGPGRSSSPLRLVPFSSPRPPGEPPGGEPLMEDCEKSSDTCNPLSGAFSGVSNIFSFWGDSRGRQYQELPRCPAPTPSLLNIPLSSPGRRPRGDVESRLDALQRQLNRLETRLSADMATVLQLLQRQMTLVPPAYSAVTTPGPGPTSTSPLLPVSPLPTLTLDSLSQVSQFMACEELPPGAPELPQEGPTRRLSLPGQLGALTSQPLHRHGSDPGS

SMILES	inhibition at 1 µM
CCCCNC(=O)c1ccc2c(c1)N=C(c1ccc(Cl)cc1)c1ccccc1[S+]2[O-] (stereo not drawn) [drawing 1840]	52%
CC(C)CNC(=O)c1ccc2c(c1)N=C(c1ccc(Cl)cc1F)c1ccccc1S2 [drawing 1835]	41%
CC(C)CNC(=O)c1ccc2c(c1)N=C(c1cccc(Cl)c1)c1ccccc1S2 [drawing 1819]	93%
O=C(NCCCC(F)(F)F)c1ccc2c(c1)N=C(c1ccc(Cl)s1)c1ccccc1S2 [drawing 1810]	14%
CC(C)CNC(=O)c1ccc2c(c1)N=C(c1ccc(Cl)s1)c1ccccc1S2 [drawing 1813]	26%
COc1cccc(C2=Nc3cc(C(=O)NCCCC(F)(F)F)ccc3Sc3ccccc32)n1 [drawing 1823]	35%
Cc1ccc(CNC(=O)c2ccc3c(c2)N=C(c2ccc(Cl)s2)c2ccccc2S3)o1 [drawing 1836]	13%
O=C(NN1CCCCC1)c1ccc2c(c1)N=C(c1ccc(Cl)cc1)c1ccccc1S2 [drawing 1831]	92%
O=C(NN1CCCCC1)c1ccc2c(c1)N=C(C1CCCCC1)c1ccccc1S2 [drawing 1828]	29%
O=C(NC1CCCCC1)c1ccc2c(c1)N=C(c1ccc(F)cc1)c1ccccc1S2 [drawing 1814]	45%
O=C(NCCCC(F)(F)F)c1ccc2c(c1)N=C(c1ccc(Cl)cc1F)c1ccccc1S2 [drawing 1809]	24%
O=C(NCCCC(F)(F)F)c1ccc2c(c1)N=C(c1ccccn1)c1ccccc1S2 [drawing 1832]	28%
CCCCNC(=O)c1ccc2c(c1)N=C(c1ccc(Br)cn1)c1ccccc1S2 [drawing 1820]	78%
CC(C)CNC(=O)c1ccc2c(c1)N=C(c1ccc(Cl)c(Cl)c1)c1ccccc1S2 [drawing 1833]	16%
O=C(NCCCC(F)(F)F)c1ccc2c(c1)N=C(c1ccsc1)c1ccccc1S2 [drawing 1837]	28%
CC(C)CCNC(=O)c1ccc2c(c1)N=C(c1cccc(Cl)c1)c1ccccc1S2 [drawing 1822]	59%
O=C(NC1CCCCC1)c1ccc2c(c1)N=C(c1cccc(Cl)c1)c1ccccc1S2 [drawing 1834]	44%
CCCCNC(=O)c1ccc2c(c1)N=C(c1ccc(Cl)cn1)c1ccccc1S2 [drawing 1839]	67%
O=C(NN1CCCCCC1)c1ccc2c(c1)N=C(c1ccc(Cl)s1)c1ccccc1S2 [drawing 1816]	30%
CCCCNC(=O)c1ccc2c(c1)N=C(c1ccc(Cl)cc1)c1ccccc1S2 [drawing 1812]	49%
